From patent US10798941B2, “Microbiocidal oxadiazole derivatives” (SYNGENTA PARTICIPATIONS AG, priority 2016, dated 2020)

How the values were obtained:
[1] = system: Phakopsora pachyrhizi; assay: Phakopsora pachyrhizi / soybean / leaf disc preventative (Asian soybean rust); assay type: in vivo; conditions: foliar, 288 h, 200 ppm in the applied formulation, soybean leaf disks, inoculated one day after application, assessed 12 to 14 days after application, vs untreated, read-out: disease control
Procedure, shortened: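 Read-out is percent disease control relative to untreated check discs, assessed once untreated discs show adequate disease, 12 to 14 days after application. Compounds, tested at 200 ppm in the applied formulation, are sprayed onto soybean leaf discs one day before inoculation with a spore suspension.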

[2] = system: Puccinia recondita f. Sp. Tritici; assay: Puccinia recondita f. sp. tritici / wheat / leaf disc preventative (brown rust); assay type: in vivo; conditions: foliar, 168 h, 200 ppm in the applied formulation, wheat leaf segments cv. Kanzler, preventative, inoculated 1 day after application, assessed 7 to 9 days after application, vs untreated, read-out: disease control
Procedure, shortened: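 Wheat cv. Kanzler leaf segments on agar were sprayed with formulated compound in water, then inoculated with spores 1 day later. Incubated at 19° C, 75% rh, 12 h light/12 h dark; percent disease control versus untreated scored 7 to 9 days after application.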

[3] = system: Puccinia recondita f. Sp. Tritici; assay: Puccinia recondita f. sp. tritici / wheat / leaf disc curative (brown rust); assay type: in vivo; conditions: foliar, 144 h, 200 ppm in the applied formulation, wheat leaf segments cv. Kanzler, applied 1 day after inoculation, assessed 6 to 8 days after application, vs untreated, read-out: disease control
Procedure, shortened: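 Curative test: wheat leaf segments cv. Kanzler on agar inoculated with spore suspension, kept dark at 19 °C/75% RH, then sprayed 1 day post-inoculation with compound diluted in water. Incubated at 19 °C, 75% RH, 12 h light/dark; percent disease control versus untreated scored 6–8 days after application.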

[4] = system: Glomerella Lagenarium (Colletotrichum Lagenarium); assay: Glomerella lagenarium (Colletotrichum lagenarium) liquid culture / cucumber / preventative (anthracnose); assay type: cell-based; conditions: Colletotrichum orbiculare; 20 ppm in the applied formulation; liquid culture in PDB, 24° C., inhibition of growth measured photometrically 3 to 4 days after application, vs untreated; read-out: disease control
Procedure, shortened: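 Conidia from cryogenic storage were mixed into potato dextrose broth. This was added to compound diluted from DMSO into 0.025% Tween20, tested at 20 ppm. Plates were incubated in the dark at 24 °C and 96% relative humidity, and growth was read photometrically after 2–7 days as % activity versus untreated check.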

SMILES | melting point [°C] | pest or weed control at 200 ppm [1] [%] | pest or weed control at 200 ppm [2] [%] | pest or weed control at 200 ppm [3] [%] | inhibition of growth at 20 ppm [4] [%]
CCc1cccc(CC)c1-n1ncc(-c2cn(Cc3ccc(-c4noc(C(F)(F)F)n4)cc3)nn2)c1C [Compound 1.31, 3-[4-[[4-[1-(2,6-diethylphenyl)-5-methyl-pyrazol-4-yl]triazol-1-yl]methyl]phenyl]-5-(trifluoromethyl)-1,2,4-oxadiazole] | 157.6 to 161.9 | – | – | – | –
FC(F)(F)c1ncn(Cc2ccc(-c3noc(C(F)(F)F)n3)cc2)n1 [Compound 1.39] | 68.2 to 70.1 | – | – | – | –
N#Cc1ncnn1Cc1ccc(-c2noc(C(F)(F)F)n2)cc1 [Compound 1.41, 2-[[4-[5-(trifluoromethyl)-1,2,4-oxadiazol-3-yl]phenyl]methyl]-1,2,4-triazole-3-carbonitrile] | 120 to 124 | – | – | – | –
CN(C)C(=O)c1cnn(Cc2ccc(-c3noc(C(F)(F)F)n3)cc2)c1 [Compound 1.149, N,N-dimethyl-1-[[4-[5-(trifluoromethyl)-1,2,4-oxadiazol-3-yl]phenyl]methyl]pyrazole-4-carboxamide] | 124 to 129 | – | – | – | –
CNC(=O)c1cnn(Cc2ccc(-c3noc(C(F)(F)F)n3)cc2)c1 [Compound 1.150, N-methyl-1-[[4-[5-(trifluoromethyl)-1,2,4-oxadiazol-3-yl]phenyl]methyl]pyrazole-4-carboxamide] | 156 to 161 | – | – | – | –
FC(F)(F)c1nc(-c2ccc(Cn3cnc(-c4ccc(Cl)cc4)c3)cc2)no1 [Compound 1.229, 3-[4-[[4-(4-chlorophenyl)imidazol-1-yl]methyl]phenyl]-5-(trifluoromethyl)-1,2,4-oxadiazole] | – | ≥ 80 | ≥ 80 | ≥ 80 | ≥ 80
COc1nc(Br)n(Cc2ccc(-c3noc(C(F)(F)F)n3)cc2)n1 [Compound 1.232, 3-[4-[(5-bromo-3-methoxy-1,2,4-triazol-1-yl)methyl]phenyl]-5-(trifluoromethyl)-1,2,4-oxadiazole] | – | ≥ 80 | ≥ 80 | ≥ 80 | ≥ 80
COc1nc(Br)nn1Cc1ccc(-c2noc(C(F)(F)F)n2)cc1 [Compound 1.233, 3-[4-[(3-bromo-5-methoxy-1,2,4-triazol-1-yl)methyl]phenyl]-5-(trifluoromethyl)-1,2,4-oxadiazole] | – | ≥ 80 | ≥ 80 | ≥ 80 | ≥ 80
COC(=O)c1cnn(Cc2ccc(-c3noc(C(F)(F)F)n3)cc2)c1C1CC1 [Compound 1.236, methyl 5-cyclopropyl-1-[[4-[5-(trifluoromethyl)-1,2,4-oxadiazol-3-yl]phenyl]methyl]pyrazole-4-carboxylate] | – | ≥ 80 | ≥ 80 | ≥ 80 | ≥ 80
COC(=O)c1cn(Cc2ccc(-c3noc(C(F)(F)F)n3)cc2)nc1C1CC1 [Compound 1.237, methyl 3-cyclopropyl-1-[[4-[5-(trifluoromethyl)-1,2,4-oxadiazol-3-yl]phenyl]methyl]pyrazole-4-carboxylate] | – | ≥ 80 | ≥ 80 | ≥ 80 | ≥ 80
COCc1nn(Cc2ccc(-c3noc(C(F)(F)F)n3)cc2)cc1C(=O)OC [Compound 1.238, methyl 3-(methoxymethyl)-1-[[4-[5-(trifluoromethyl)-1,2,4-oxadiazol-3-yl]phenyl]methyl]pyrazole-4-carboxylate] | – | ≥ 80 | ≥ 80 | ≥ 80 | ≥ 80
COCc1c(C(=O)OC)cnn1Cc1ccc(-c2noc(C(F)(F)F)n2)cc1 [Compound 1.239, methyl 5-(methoxymethyl)-1-[[4-[5-(trifluoromethyl)-1,2,4-oxadiazol-3-yl]phenyl]methyl]pyrazole-4-carboxylate] | – | ≥ 80 | ≥ 80 | ≥ 80 | ≥ 80
FC(F)(F)c1nc(-c2ccc(Cn3ccc(Cl)n3)cc2)no1 [Compound 1.243, 3-[4-[(3-chloropyrazol-1-yl)methyl]phenyl]-5-(trifluoromethyl)-1,2,4-oxadiazole] | – | ≥ 80 | ≥ 80 | ≥ 80 | ≥ 80
FC(F)(F)c1nc(-c2ccc(Cn3cccc4nnnc3-4)cc2)no1 [Compound 1.244, 3-[4-(triazolo[4,5-b]pyridin-4-ylmethyl)phenyl]-5-(trifluoromethyl)-1,2,4-oxadiazole] | – | ≥ 80 | ≥ 80 | ≥ 80 | ≥ 80
COC(=O)c1cnn(Cc2ccc(-c3noc(C(F)(F)F)n3)cc2)c1 [Compound 1.248, methyl 1-[[4-[5-(trifluoromethyl)-1,2,4-oxadiazol-3-yl]phenyl]methyl]pyrazole-4-carboxylate] | 122 to 129 | – | – | – | –
CCOC(=O)c1cnn(Cc2ccc(-c3noc(C(F)(F)F)n3)c(F)c2)c1 [Compound 1.252, ethyl 1-[[3-fluoro-4-[5-(trifluoromethyl)-1,2,4-oxadiazol-3-yl]phenyl]methyl]pyrazole-4-carboxylate] | 131 to 135 | – | – | – | –
Cc1cc(C)n(Cc2ccc(-c3noc(C(F)(F)F)n3)c(F)c2)n1 [Compound 1.253, 3-[4-[(3,5-dimethylpyrazol-1-yl)methyl]-2-fluoro-phenyl]-5-(trifluoromethyl)-1,2,4-oxadiazole] | – | ≥ 80 | ≥ 80 | ≥ 80 | ≥ 80
N#Cc1ncnn1Cc1ccc(-c2noc(C(F)(F)F)n2)c(F)c1 [Compound 1.256, 2-[[3-fluoro-4-[5-(trifluoromethyl)-1,2,4-oxadiazol-3-yl]phenyl]methyl]-1,2,4-triazole-3-carbonitrile] | – | ≥ 80 | ≥ 80 | ≥ 80 | ≥ 80
CCN(CC)C(=O)c1cnn(Cc2ccc(-c3noc(C(F)(F)F)n3)cc2)c1 [Compound 1.259, N,N-diethyl-1-[[4-[5-(trifluoromethyl)-1,2,4-oxadiazol-3-yl]phenyl]methyl]pyrazole-4-carboxamide] | 86 to 96 | – | – | – | –
CON(C)C(=O)c1cnn(Cc2ccc(-c3noc(C(F)(F)F)n3)cc2)c1 [Compound 1.260, N-methoxy-N-methyl-1-[[4-[5-(trifluoromethyl)-1,2,4-oxadiazol-3-yl]phenyl]methyl]pyrazole-4-carboxamide] | 102 to 112 | – | – | – | –
CC(C)OC(=O)c1cnn(Cc2ccc(-c3noc(C(F)(F)F)n3)cc2)c1 [Compound 1.263, isopropyl 1-[[4-[5-(trifluoromethyl)-1,2,4-oxadiazol-3-yl]phenyl]methyl]pyrazole-4-carboxylate] | – | ≥ 80 | ≥ 80 | ≥ 80 | ≥ 80
CCCOC(=O)c1cnn(Cc2ccc(-c3noc(C(F)(F)F)n3)cc2)c1 [Compound 1.264, propyl 1-[[4-[5-(trifluoromethyl)-1,2,4-oxadiazol-3-yl]phenyl]methyl]pyrazole-4-carboxylate] | 105 to 115 | – | – | – | –
CC(C)ON=Cc1cnn(Cc2ccc(-c3noc(C(F)(F)F)n3)cc2)c1 [Compound 1.288, N-isopropoxy-1-[1-[[4-[5-(trifluoromethyl)-1,2,4-oxadiazol-3-yl]phenyl]methyl]pyrazol-4-yl]methanimine] | – | ≥ 80 | ≥ 80 | ≥ 80 | ≥ 80
Cc1cc(C)n(C(C)c2ccc(-c3noc(C(F)(F)F)n3)cc2)n1 (centres unmarked) [Compound 1.303, 3-[4-[1-(3,5-dimethylpyrazol-1-yl)ethyl]phenyl]-5-(trifluoromethyl)-1,2,4-oxadiazole] | – | ≥ 80 | ≥ 80 | ≥ 80 | ≥ 80
CC1CN(Cc2ccc(-c3noc(C(F)(F)F)n3)cc2)CC(C)O1 (centres unmarked) [Compound 1.306, 2,6-dimethyl-4-[[4-[5-(trifluoromethyl)-1,2,4-oxadiazol-3-yl]phenyl]methyl]morpholine] | – | ≥ 80 | ≥ 80 | ≥ 80 | ≥ 80
N#CC(c1ccc(-c2noc(C(F)(F)F)n2)cc1)N1CCOCC1 (centres unmarked) [Compound 1.312, 2-morpholino-2-[4-[5-(trifluoromethyl)-1,2,4-oxadiazol-3-yl]phenyl]acetonitrile] | – | ≥ 80 | ≥ 80 | ≥ 80 | ≥ 80
